The numbers were not newly measured in patent publication US20060281749A1, “Method for treating glaucoma IV B” (priority 2000, published 2006), which cites them from elsewhere.

The structures appear in SMILES notation.

Series [1] relates to Rhesus monkeys. The note with it: drug treated vs. control eye, baseline and pilocarpine-stimulated conditions.
The subject of series [2] is Rhesus monkeys. To be noted: accommodative responses to i.m. pilocarpine.

Regarding `Cc1sc[n+](CC(=O)c2ccccc2)c1C.[Cl-]` [4,5-dimethyl-3-(2-oxoethyl-phenethyl) thiazolium chloride], the “improvement in ophthalmologic function (increase in outflow facility)” value with Rhesus monkeys [1] is listed as “improvement has been illustrated”. For the same compound, in the series on Rhesus monkeys [2], the Improvement in accommodation result is “Improvement in accommodation has been illustrated”.
